According to US20230310459A1, “NEUROACTIVE STEROIDS AND THEIR METHODS OF USE” (Sage Therapeutics, Inc., priority 2017, published 2023):
Like-named read-outs stand apart in the source and are kept apart here.

Test: Phase 1 four-period crossover study of relative bioavailability and food effect, Compound 1 Capsules vs Oral Solution, plasma PK
Assay type: in vivo, human
Settings: for AUC(0-inf) / AUC(0-t) / Cmax / half-life / Tmax: human, po; for AUC(0-inf) / AUC(0-t) / Cmax / half-life / Tmax / AUC0-inf, geometric mean / AUC0-t, geometric mean / Cmax, geometric mean: plasma, healthy subjects; for AUC(0-inf) / AUC(0-t) / Cmax / half-life / Tmax / AUC0-inf geometric mean ratio (GMR) Test/Reference / AUC0-t geometric mean ratio (GMR) Test/Reference / Cmax geometric mean ratio (GMR) Test/Reference: 30 mg; for Tmax: read-out: tmax, median
Method: In a Phase 1, single-center, open-label, four-period, two-sequence crossover study, Compound 1 capsules were evaluated for safety, tolerability, and relative bioavailability. Twelve (12) subjects completed all four periods of the study; subjects who replaced discontinued subjects were allocated to the same randomization sequence as those discontinued. Up to 24 subjects were recruited into the study.
This study consisted of four periods:
Period 1: Subjects (N=20) were randomized on a 1:1 basis to receive a single 30-mg dose of Compound 1 Capsules or a single 30-mg dose of Compound 1 Oral Solution on Day 1. Study drug was administered in the fasting state. Subjects were confined to the inpatient facility from Day −1 until they were discharged on Day 3.
On Day 8, study drug was administered in the fasting state. Subjects were confined to the inpatient facility from Day 7 until they were discharged on Day 10.
Period 3: Food Effect (high fat): All subjects received a single 30 mg dose of Compound 1 Capsules on Day 15. Study drug was administered after a high-fat meal. Subjects were confined to the inpatient facility from Day 14 until they were discharged on Day 17.
Period 4: Food Effect (standard): All subjects received a single 30 mg dose of Compound 1 Capsules on Day 22. Study drug was administered after a standard meal. Subjects were confined to the inpatient facility from Day 21 until they were discharged on Day 24.
Subjects were admitted on the day before the dose was scheduled to be administered (i.e., on Day −1, Day 7, Day 14 and Day 21) in order to undergo the predose assessments.
The Compound 1 Capsules dose was administered as two capsules with 8 ounces (240 mL) of water; both capsules were to be swallowed as quickly as possible. Compound 1 Oral Solution was prepared as approximately 40 mL, to be swallowed all at once, followed by approximately 200 mL of water that was used to rinse the dosing bottle approximately five times. The time of swallowing the initial 40 mL solution or capsules was the time zero for all assessments.
Subjects were not allowed to consume water for 1 hour before and after dosing, except for water consumed during dosing. After 1 hour postdose, water was allowed ad libitum. Subjects were required to fast overnight (minimum of 10 hours) prior to the scheduled dosing. In periods 1 and 2, subjects were administered a standard meal 4 or more hours after the dose was administered.
(§1) In period 3 (food effect high-fat meal), subjects were administered a high-fat meal 30 minutes prior to administration of the Compound 1 Capsules. Subjects should have eaten this meal in 30 minutes or less, and the Compound 1 dose was administered 30 minutes after the start of the meal. No other food was allowed for at least 4 hours postdose.
as §1, with “period 4” for “period 3”, “effect standard” for “effect high-fat”, “a standard” for “a high-fat”, “after” for “after the”
Plasma samples were collected for PK analysis of Compound 1 at the following sampling times relative to dosing in each period: predose on Day 1 and at 15 and 30 minutes and 1, 1.5, 2, 3, 4, 6, 8, 10, 12, 16, 24 (Day 2), and 48 (Day 3) hours postdose.
The plasma samples were kept frozen at approximately −70 to −80° C. until analyzed. They were packed as directed to avoid breakage during transit and with sufficient dry ice to prevent thawing for at least 72 hours. A specimen-identification form or equivalent was completed and sent to the laboratory with each set of samples.
Bioanalyses of plasma samples for the determination of Compound 1 were conducted utilizing validated LC-MS/MS methods at Agilux Laboratories, Worcester, MA.
The BLQ values between evaluable concentrations and the terminal BLQ values were set to ‘missing’. […]

[1] = single 30 mg oral dose, Capsules, fed [high-fat meal]
[2] = single 30 mg oral dose, Capsules, fed [standard meal]
[3] = single 30-mg oral dose, Capsules, fasted
[4] = single 30-mg oral dose, Oral Solution, fasted
[5] = test Fasted Capsules / reference Fasted Solution
[6] = test Fed Capsules [Standard meal] / reference Fasted Capsules
[7] = test Fed Capsules [Standard meal] / reference Fasted Solution
[8] = test Fed Capsules [high-fat meal] / reference Fasted Capsules
[9] = test Fed Capsules [high-fat meal] / reference Fasted Solution

## C[C@@]1(O)CC[C@H]2[C@H](CC[C@@H]3[C@@H]2CC[C@]2(C)[C@@H](C(=O)Cn4cc(C#N)cn4)CC[C@@H]32)C1 [Compound 1, 1-(2-((3R,5R,8R,9R,10S,13S,14S,17S)-3-hydroxy-3,13-dimethylhexadecahydro-1H-cyclopenta[a]phenanthren-17-yl)-2-oxoethyl)-1H-pyrazole-4-carbonitrile]
Single 30 mg oral dose, Capsules, fed [high-fat meal], read-out: AUC0-inf, arithmetic mean
  AUC(0-inf): 0.896 µg·h/mL
Single 30 mg oral dose, Capsules, fed [high-fat meal], read-out: AUC0-inf, geometric mean
  AUC(0-inf): 0.867 µg·h/mL
Single 30 mg oral dose, Capsules, fed [high-fat meal], read-out: AUC0-inf, median
  AUC(0-inf): 0.878 µg·h/mL
Single 30 mg oral dose, Capsules, fed [high-fat meal], read-out: AUC0-t, arithmetic mean
  AUC(0-t): 0.847 µg·h/mL
Single 30 mg oral dose, Capsules, fed [high-fat meal], read-out: AUC0-t, geometric mean
  AUC(0-t): 0.834 µg·h/mL
Single 30 mg oral dose, Capsules, fed [high-fat meal], read-out: AUC0-t, median
  AUC(0-t): 0.822 µg·h/mL
Single 30 mg oral dose, Capsules, fed [high-fat meal], read-out: Cmax, arithmetic mean
  Cmax: 0.0644 µg/mL
Single 30 mg oral dose, Capsules, fed [high-fat meal], read-out: Cmax, geometric mean
  Cmax: 0.0628 µg/mL
Single 30 mg oral dose, Capsules, fed [high-fat meal], read-out: Cmax, median
  Cmax: 0.0663 µg/mL
Single 30 mg oral dose, Capsules, fed [high-fat meal], read-out: t1/2, arithmetic mean (converted)
  half-life: 12.9 h
Single 30 mg oral dose, Capsules, fed [high-fat meal], read-out: t1/2, median (converted)
  half-life: 12.7 h
[1]
  Tmax: 5.97 h
  AUC0-inf, geometric mean: 0.8669 µg·h/mL
  AUC0-t, geometric mean: 0.83406 µg·h/mL
Single 30 mg oral dose, Capsules, fed [standard meal], read-out: AUC0-inf, arithmetic mean
  AUC(0-inf): 1.02 µg·h/mL
Single 30 mg oral dose, Capsules, fed [standard meal], read-out: AUC0-inf, geometric mean
  AUC(0-inf): 1.01 µg·h/mL
Single 30 mg oral dose, Capsules, fed [standard meal], read-out: AUC0-inf, median
  AUC(0-inf): 1.06 µg·h/mL
Single 30 mg oral dose, Capsules, fed [standard meal], read-out: AUC0-t, arithmetic mean
  AUC(0-t): 0.852 µg·h/mL
Single 30 mg oral dose, Capsules, fed [standard meal], read-out: AUC0-t, geometric mean
  AUC(0-t): 0.838 µg·h/mL
Single 30 mg oral dose, Capsules, fed [standard meal], read-out: AUC0-t, median
  AUC(0-t): 0.881 µg·h/mL
Single 30 mg oral dose, Capsules, fed [standard meal], read-out: Cmax, arithmetic mean
  Cmax: 0.0652 µg/mL
Single 30 mg oral dose, Capsules, fed [standard meal], read-out: Cmax, geometric mean
  Cmax: 0.0631 µg/mL
Single 30 mg oral dose, Capsules, fed [standard meal], read-out: Cmax, median
  Cmax: 0.0632 µg/mL
Single 30 mg oral dose, Capsules, fed [standard meal], read-out: t1/2, arithmetic mean (converted)
  half-life: 14.9 h
Single 30 mg oral dose, Capsules, fed [standard meal], read-out: t1/2, median (converted)
  half-life: 15.8 h
[2]
  Tmax: 4 h
  AUC0-inf, geometric mean: 1.01304 µg·h/mL
  AUC0-t, geometric mean: 0.83755 µg·h/mL
  Cmax, geometric mean: 0.06312 µg/mL
Single 30-mg oral dose, Capsules, fasted, read-out: AUC0-inf, arithmetic mean
  AUC(0-inf): 0.642 µg·h/mL
Single 30-mg oral dose, Capsules, fasted, read-out: AUC0-inf, geometric mean
  AUC(0-inf): 0.64 µg·h/mL
Single 30-mg oral dose, Capsules, fasted, read-out: AUC0-inf, median
  AUC(0-inf): 0.65 µg·h/mL
Single 30-mg oral dose, Capsules, fasted, read-out: AUC0-t, arithmetic mean
  AUC(0-t): 0.544 µg·h/mL
Single 30-mg oral dose, Capsules, fasted, read-out: AUC0-t, geometric mean
  AUC(0-t): 0.53 µg·h/mL
Single 30-mg oral dose, Capsules, fasted, read-out: AUC0-t, median
  AUC(0-t): 0.552 µg·h/mL
Single 30-mg oral dose, Capsules, fasted, read-out: Cmax, arithmetic mean
  Cmax: 0.023 µg/mL
Single 30-mg oral dose, Capsules, fasted, read-out: Cmax, geometric mean
  Cmax: 0.0218 µg/mL
Single 30-mg oral dose, Capsules, fasted, read-out: Cmax, median
  Cmax: 0.0204 µg/mL
Single 30-mg oral dose, Capsules, fasted, read-out: t1/2, arithmetic mean (converted)
  half-life: 15.6 h
Single 30-mg oral dose, Capsules, fasted, read-out: t1/2, median (converted)
  half-life: 15.7 h
[3]
  Tmax: 4.02 h
  AUC0-inf, geometric mean: 0.63969 µg·h/mL
  AUC0-t, geometric mean: 0.52962 µg·h/mL
  Cmax, geometric mean: 0.02181 µg/mL
Single 30-mg oral dose, Oral Solution, fasted, read-out: AUC0-inf, arithmetic mean
  AUC(0-inf): 0.798 µg·h/mL
Single 30-mg oral dose, Oral Solution, fasted, read-out: AUC0-inf, geometric mean
  AUC(0-inf): 0.77 µg·h/mL
Single 30-mg oral dose, Oral Solution, fasted, read-out: AUC0-inf, median
  AUC(0-inf): 0.816 µg·h/mL
Single 30-mg oral dose, Oral Solution, fasted, read-out: AUC0-t, arithmetic mean
  AUC(0-t): 0.795 µg·h/mL
Single 30-mg oral dose, Oral Solution, fasted, read-out: AUC0-t, geometric mean
  AUC(0-t): 0.776 µg·h/mL
Single 30-mg oral dose, Oral Solution, fasted, read-out: AUC0-t, median
  AUC(0-t): 0.788 µg·h/mL
Single 30-mg oral dose, Oral Solution, fasted, read-out: Cmax, arithmetic mean
  Cmax: 0.12 µg/mL
Single 30-mg oral dose, Oral Solution, fasted, read-out: Cmax, geometric mean
  Cmax: 0.114 µg/mL
Single 30-mg oral dose, Oral Solution, fasted, read-out: Cmax, median
  Cmax: 0.115 µg/mL
Single 30-mg oral dose, Oral Solution, fasted, read-out: t1/2, arithmetic mean (converted)
  half-life: 13.5 h
Single 30-mg oral dose, Oral Solution, fasted, read-out: t1/2, median (converted)
  half-life: 13.3 h
[4]
  Tmax: 1 h
  AUC0-inf, geometric mean: 0.77031 µg·h/mL
  AUC0-t, geometric mean: 0.77627 µg·h/mL
[5]
  AUC0-inf geometric mean ratio (GMR) Test/Reference: 0.830
  AUC0-t geometric mean ratio (GMR) Test/Reference: 0.682
  Cmax geometric mean ratio (GMR) Test/Reference: 0.191
[6]
  AUC0-inf geometric mean ratio (GMR) Test/Reference: 1.584
  AUC0-t geometric mean ratio (GMR) Test/Reference: 1.581
  Cmax geometric mean ratio (GMR) Test/Reference: 2.894
[7]
  AUC0-inf geometric mean ratio (GMR) Test/Reference: 1.315
  AUC0-t geometric mean ratio (GMR) Test/Reference: 1.079
  Cmax geometric mean ratio (GMR) Test/Reference: 0.552
[8]
  AUC0-inf geometric mean ratio (GMR) Test/Reference: 1.355
  AUC0-t geometric mean ratio (GMR) Test/Reference: 1.575
  Cmax geometric mean ratio (GMR) Test/Reference: 2.879
[9]
  AUC0-inf geometric mean ratio (GMR) Test/Reference: 1.125
  AUC0-t geometric mean ratio (GMR) Test/Reference: 1.074
  Cmax geometric mean ratio (GMR) Test/Reference: 0.549
